Measured values as given in patent US20190350955A1, “METHODS AND PHARMACEUTICAL COMPOSITIONS FOR THE TREATMENT OF CARDIOMYOPATHIES” (INSERM (Institut National de la Sante et de la Recherche …, priority 2016, published 2019).

Tests used:
Format in all cases: in vivo, mouse
Lmna^H222P/H222P mice [1] = test: Survival of Lmna H222P/H222P mice on NR diet
Procedure: (§1) Mice were bred in an accredited animal facility (accreditation number: C-75-13-08). All experiments on mice were approved by the Comité d'éthique en expérimentation animate Charles Darwin No 5. Mice Lmna^H222P/H222P were backcrossed 8 times to 129S2/SvPasOrlRj strain mice to obtain pure genetic background. Male mice used for the studies were maintained under a 12 h light/12 h dark cycle at constant temperature (23° C.) with free access to food and water. Nicotinamide riboside (NR) complementation: Animals at 17 weeks of age were fed for 9 weeks with either a chow diet (A04: Scientific Animal Food & Engineering) or a chow diet complemented with 0.25% of NR (kindly provided by ChromaDex, Inc. California) corresponding to a dose of 400 mg/kg/day for a mouse weighing 25 g eating 4 g of food per day. Nicotinamide (NAM) treatment: Animals at 17 weeks of age were injected intraperitoneally (IP) every two days (q.a.d.) for 9 weeks with either physiologic serum or physiologic serum added with NAM at 50 mg/ml corresponding to a dose of 500 mg/kg for a mouse weighing 25 g.
For survival analysis, Lmna^H222P/H222P mice were fed chow supplemented with 0.25% nicotinamide riboside when they were 17 weeks of age and continued until they suffered from significant distress or died. p≤0.001

Lmna^WT/WT mice = test: NAD+ content quantification in heart and liver of treated wild type mice; conditions: NR diet same dosage (400 mg/kg/day), 9 weeks
Procedure: as §1, with “Nicotinamide (NAM) treatment: Animals at 17 weeks of age were injected intraperitoneally (IP) every two days (q.a.d.) for 9 weeks with either physiologic serum or physiologic serum added with NAM at 50 mg/ml corresponding to a dose of 500 mg/kg for a mouse weighing 25 g.” left out
Fresh mouse tissues were homogenized and processed according to previous report (Sander B J, Oelshlegel F J & Brewer G J (1976) Quantitative analysis of pyridine nucleotides in red blood cells: a single-step extraction procedure. Anal. Biochem. 71: 29-36). The concentration of NAD+ in heart tissue was determined using a spectrophotometric assay at 550 nm based on an alcohol dehydrogenase cycling reaction, in which a Methyl Thiazolyl Tetrazolium (MTT) is reduced to Formazan. […]

Lmna^H222P/H222P mice [2] = test: Echocardiography and heart size in treated Lmna H222P/H222P mice
Procedure: as §1
Mouse transthoracic echocardiography was performed using an ACUSON 128XP/10 ultrasound with a 11 Mhz linear probe (Mountain View).MHz transducer applied to the chest wall. Mice were maintained under anesthetized with 0.75% isoflurane anaesthesia (0.75% in O2) and placed on a heating pad (25° C.). Left ventricular (LV) parameters were obtained from M-mode recordings in a modified short axis view. The intra ventricular septum (IVS), LV posterior wall (LVPW), LV diameter (LVD) in diastole and systole, the percentage of fractional shortening (FS) and the heart rate (HR) were measured from the mean of at least three separate cardiac cycles. A “blinded” echocardiographer, unaware of the genotype and the treatment, performed the examinations.

[3] = NR diet 400 mg/kg/day vs chow-diet, echocardiography after 4 and 9 weeks

SMILES: NC(=O)c1ccc[n+]([C@@H]2O[C@H](CO)[C@@H](O)[C@H]2O)c1 [NR, nicotinamide riboside]
- mice that died over the course of the treatment protocol (Lmna^H222P/H222P mice [1]; NR diet 400 mg/kg/day, 9 weeks from 17 weeks of age, 38% of chow-diet mice died): none
- age at which mice started to die (Lmna^H222P/H222P mice [1]; pilot survival study, NR feeding from 17 weeks of age, chow-diet 30 weeks): 38 weeks
- mean of survival (Lmna^H222P/H222P mice [1]; pilot survival study, NR feeding from 17 weeks of age, chow-diet 33 weeks): 39 weeks
- cellular NAD+ content in liver and heart (Lmna^WT/WT mice): same significant benefit
- left-ventricular end diastolic diameter (LVDd) (Lmna^H222P/H222P mice [2]; [3]): significantly decreased
- left-ventricular end systolic diameter (LVDs) (Lmna^H222P/H222P mice [2]; [3]): significantly decreased
- left-ventricular fractional shortening (FS) (Lmna^H222P/H222P mice [2]; NR diet 400 mg/kg/day vs chow-diet, starting as early as four weeks of treatment): increased
- overall heart size (Lmna^H222P/H222P mice [2]; NR diet vs chow-diet): reduced
